From patent publication US20240174637A1, “DEGRADERS OF GRK2 AND USES THEREOF” (Sonata Therapeutics, Inc., priority 2021, published 2024)
Where two headings read alike, the source gives them in different places.

How the values were obtained:
Format in all cases: cell-based
[1] = tested on: PAXF1657 EV; experiment: 7-day cellular proliferation assay (CellTiter-Glo), PAXF1657 EV
Experimental: (§1) In order to identify compounds specific for GRK2, we generated two isogenic cell line pairs of the pancreatic cancer cell line PAXF1657, a pair of cells stably overexpressing GRK2 cDNA or the control empty vector and a cell line pair of PAXF1657 GRK2 knockout clonal cells versus non-targeting control clonal cells.
(§2) Proliferation Assay: Cellular anti-proliferative activity of compounds was assessed by using the pancreatic cancer cell line, PAXF1657, stably overexpressing GRK2 cDNA or the control empty vector, as well as the parental urinary bladder cancer cell line, 5637. In addition, we also took advantage of GRK2 knockout cell lines that were generated via CRISPR. Cell lines were seeded into tissue culture treated, white-walled, 96-well plates at a density of 500 cells/well in RPMI1640 media supplemented with 10% H.I. FBS and penicillin/streptomycin. Plates were incubated overnight at 37° C., 5% CO2 to allow cells to adhere to the wells. GRK2 inhibitors were added to the cells using a 10-point dilution series with a final concentration ranging from 30 μM-0.0002 μM in 0.3% DMSO. At the time of compound addition, a set of plates, that were not treated with compounds, were collected and cell viability was measured using CellTiter-Glo (Promega). CellTiter-Glo reagent was added to the designed plates and luminescence was measuring using a Biotek Synergy plate reader. The compound treated cells were incubated for 3 days at 37° C., 5% CO2. The media was then aspirated from each well and replaced with fresh media containing GRK2 inhibitors. The compound treated cells were then incubated for an additional 4 days at 37° C., 5% CO2. Cell viability was assessed and at end of the 7-day compound treatment by CellTiterGlo.

[2] = tested on: PAXF1657 KO Clone #4; experiment: 7-day cellular proliferation assay (CellTiter-Glo), PAXF1657 KO Clone #4
Experimental: as §1, §2

[3] = target: T1, GRK2 (Homo sapiens, UniProt P25098); experiment: GRK2 Degradation Assay and Western Blot in PAXF1657 cells; design: endogenous in cells; host or cells: PAXF1657
T1 sequence (P25098 1-689): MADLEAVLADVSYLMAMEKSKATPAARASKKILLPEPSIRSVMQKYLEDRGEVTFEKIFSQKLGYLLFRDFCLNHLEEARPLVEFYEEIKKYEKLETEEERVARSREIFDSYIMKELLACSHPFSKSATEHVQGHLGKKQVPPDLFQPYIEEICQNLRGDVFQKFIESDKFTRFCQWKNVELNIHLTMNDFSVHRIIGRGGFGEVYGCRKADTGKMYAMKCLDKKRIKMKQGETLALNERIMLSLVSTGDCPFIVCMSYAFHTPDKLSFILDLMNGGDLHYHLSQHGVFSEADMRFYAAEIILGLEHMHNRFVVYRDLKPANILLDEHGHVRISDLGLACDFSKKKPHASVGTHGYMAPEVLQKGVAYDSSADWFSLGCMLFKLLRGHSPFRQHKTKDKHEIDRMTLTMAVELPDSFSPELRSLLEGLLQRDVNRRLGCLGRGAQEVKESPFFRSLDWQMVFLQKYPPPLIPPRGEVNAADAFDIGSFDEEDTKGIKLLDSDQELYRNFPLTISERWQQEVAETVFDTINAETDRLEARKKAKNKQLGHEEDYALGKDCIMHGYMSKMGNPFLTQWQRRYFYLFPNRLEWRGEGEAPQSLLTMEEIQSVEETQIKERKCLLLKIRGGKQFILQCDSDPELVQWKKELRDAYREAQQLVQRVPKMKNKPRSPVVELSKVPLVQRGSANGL
Experimental: General Protocol: Degradation Assay and Western Blot. PAXF1657 cells were plated in 6-well, 24-well plates or 60 mm tissue culture treated dishes and incubated at 37° C. until 70% confluency. The media was aspirated, and the cells were treated with fresh media containing the compounds in the concentration range of 0 μM to 10 μM for a period of 6 to 24 hours. At the desired time points the cells were washed twice with cold PBS and lysed with lysis buffer (ice cold PBS+1% NP40 with 1/100 protease/phosphatase inhibitors) on ice for 8 mins followed by sonication at 70% intensity pulses for 10 seconds. The cells were centrifuged at 20000 g for 8 min at 4° C. The supernatants were collected and stored at −80° C.
Samples were mixed with NuPAGE LDS sample buffer and NuPAGE sample reducing buffer (3×), vortexed and heated at 95° C. for 10 min, and then analyzed by SDS-PAGE (NuPAGE 4-12%) followed by transfer to nitrocellulose membrane. […] The membranes were washed three times with TBST and incubated with GRK2 or R-actin antibodies in 5% milk in TBST at 4° C. overnight. The membranes were washed three times with TBST and incubated with anti-mouse IgG-HRP or anti-rabbit IgG-HRP at room temperature for 2 hours in 5% milk in TBST. The membranes were washed three times with TBST and developed with ECL Dura, ECL femto or ECL atto substrates.

[4] = proliferation, read-out: GeoMean IC50 (UM) PAXF1657 EV
[5] = proliferation, read-out: GeoMean IC50 (uM) PAXF1657 KO Clone #4
[6] = Conc 0.3 uM, read-out: Degradation Assay - 3 point: Degradation (%)
[7] = Conc 1 uM, read-out: Degradation Assay - 3 point: Degradation (%)
[8] = Conc 3 uM, read-out: Degradation Assay - 3 point: Degradation (%)
[9] = read-out: Degradation Assay - 3 point: Degradation (%)
[10] = 168 h, 7-day, read-out: 7-day proliferation assay: IC50 GeoMean (uM) [Cell Line: PAXF1657 EV]
[11] = 168 h, 7-day, read-out: 7-day proliferation assay: IC50 GeoMean (uM) [Cell Line: PAXF1657 KO Clone #4]
[12] = 1 uM, PAXF1657 EV, 24 hrs, read-out: % GRK2 degradation at 1 uM in PAXF1657 EV (24 hrs)
[13] = 3 uM, PAXF1657 EV, 24 hrs, read-out: % GRK2 degradation at 3 uM in PAXF1657 EV (24 hrs)

Row | Structure (SMILES) | IC50 [1, 4] | IC50 [2, 5] | inhibition at 0.3 µM [3, 6] | inhibition at 1 µM [3, 7] | inhibition at 3 µM [3, 8] | inhibition at 0.3 µM [3, 9] | inhibition at 1 µM [3, 9] | inhibition at 3 µM [3, 9] | IC50 [1, 10] | IC50 [2, 11] | inhibition at 1 µM [3, 12] | inhibition at 3 µM [3, 13]
1 | Cn1c(CNc2cccc(C(=O)NCc3ccc(OCCCCCOCCCOCC(=O)Nc4cccc5c4CN(C4CCC(=O)NC4=O)C5=O)cc3)c2)nnc1-c1ccncn1 (stereo not drawn) [Compound D167, N-(4-(5-(3-(2-(2-(2,6-dioxopiperidin-3-yl)-1-oxoisoindolin-4-ylamino)-2-oxoethoxy)propoxy)pentyloxy)benzyl)-3-((4-methyl-5-(pyrimidin-4-yl)-4H-1,2,4-triazol-3-yl)methylamino)benzamide] | 2.44 µM | > 30 µM | 33.3% | 57.4% | 55.2% |  |  |  |  |  |  | 
2 | Cc1ncsc1-c1ccc(CNC(=O)[C@@H]2C[C@@H](O)CN2C(=O)[C@@H](NC(=O)COCCCOCCCCCOc2ccc3c(c2)[C@H](NC(=O)c2cccc(NCc4nnc(-c5ccncn5)n4C)c2)CCO3)C(C)(C)C)cc1 [Compound D161] | 1.56 µM | 7.51 µM | 15% | 23% | 30% |  |  |  |  |  |  | 
3 | C[C@@H](NC(=O)c1cccc(NCc2nnc(-c3ccncn3)n2C)c1)c1cccc(OCCCCCCn2cc(CCCC(=O)Nc3cccc4c3CN(C3CCC(=O)NC3=O)C4=O)nn2)c1 (stereo partly drawn) [Compound D165] | 2.6 µM | > 30 µM | -1.61% | 35.5% | 70.1% |  |  |  |  |  |  | 
4 | Cc1ncsc1-c1ccc(CNC(=O)[C@@H]2C[C@@H](O)CN2C(=O)[C@@H](NC(=O)COCCCOCCCCCOc2ccc(CNC(=O)c3cccc(NCc4nnc(-c5ccncn5)n4C)c3)cc2)C(C)(C)C)cc1 [Compound D168] | > 1.88 µM | 6.03 µM | 0.276% | -12% | -22% |  |  |  |  |  |  | 
5 | C[C@@H](NC(=O)c1cccc(NCc2nnc(-c3ccncn3)n2C)c1)c1cccc(OCCCCCCn2cc(CCCCC(=O)Nc3cccc4c3CN(C3CCC(=O)NC3=O)C4=O)nn2)c1 (stereo partly drawn) [Compound D166] | 1.91 µM | > 30 µM | 12.1% | 32.4% | 68.1% |  |  |  |  |  |  | 
6 | C[C@@H](NC(=O)c1cccc(NCc2nnc(-c3ccncn3)n2C)c1)c1cccc(OCCCCCn2cc(CCCC(=O)Nc3cccc4c3CN(C3CCC(=O)NC3=O)C4=O)nn2)c1 (stereo partly drawn) [Compound D157] | 7.39 µM | > 30 µM | 13.5% | 11.1% | 42.3% |  |  |  |  |  |  | 
7 | Cn1c(CNc2cccc(C(=O)NCc3cccc(OCCCCCOCCCOCC(=O)N4CCN(c5ccc6c(c5)CN(C5CCC(=O)NC5=O)C6=O)CC4)c3)c2)nnc1-c1ccncn1 (stereo not drawn) [Compound D189, N-(3-((5-(3-(2-(4-(2-(2,6-dioxopiperidin-3-yl)-1-oxoisoindolin-5-yl)piperazin-1-yl)-2-oxoethoxy)propoxy)pentyl)oxy)benzyl)-3-(((4-methyl-5-(pyrimidin-4-yl)-4H-1,2,4-triazol-3-yl)methyl)amino)benzamide] | 0.42 µM | > 30 µM | 2.78% | 35.8% | 58.5% |  |  |  |  |  |  | 
8 | C[C@@H](NC(=O)c1cccc(NCc2nnc(-c3ccncn3)n2C)c1)c1cccc(OCCCCCCCn2cc(CCCC(=O)Nc3cccc4c3CN(C3CCC(=O)NC3=O)C4=O)nn2)c1 (stereo partly drawn) [Compound D158, N-((1R)-1-(3-(7-(4-(4-(2-(2,6-dioxopiperidin-3-yl)-1-oxoisoindolin-4-ylamino)-4-oxobutyl)-1H-1,2,3-triazol-1-yl)heptyloxy)phenyl)ethyl)-3-((4-methyl-5-(pyrimidin-4-yl)-4H-1,2,4-triazol-3-yl)methylamino)benzamide] | 1.71 µM | > 30 µM | 42.9% | 65.8% | 81.9% |  |  |  |  |  |  | 
9 | Cn1c(CNc2cccc(C(=O)N[C@@H]3CCOc4ccc(OCCCCCCOCCOCCOCCCCCC(=O)N5CCN(c6ccc7c(c6)CN(C6CCC(=O)NC6=O)C7=O)CC5)cc43)c2)nnc1-c1ccncn1 (stereo partly drawn) [Compound D188, N-((4R)-6-(6-(2-(2-(6-(4-(2-(2,6-dioxopiperidin-3-yl)-1-oxoisoindolin-5-yl)piperazin-1-yl)-6-oxohexyloxy)ethoxy)ethoxy)hexyloxy)chroman-4-yl)-3-((4-methyl-5-(pyrimidin-4-yl)-4H-1,2,4-triazol-3-yl)methylamino)benzamide] | 1.26 µM | > 30 µM |  |  |  | 56.9% | 67.7% | 78.2% |  |  |  | 
10 | Cc1ncsc1-c1ccc(CNC(=O)[C@@H]2C[C@@H](O)CN2C(=O)[C@@H](NC(=O)CCOCCOCCOCCNC(=O)CCCCOc2cccc(CNC(=O)c3cccc(NCc4nnc(-c5ccncn5)n4C)c3)c2)C(C)(C)C)cc1 [Compound D115] |  |  |  |  |  |  |  |  | > 10 µM | 1 to 10 µM | -14% | -2%
11 | Cn1c(CNc2cccc(C(=O)N[C@@H]3CCOc4ccc(OCCCCCCOCCOCCOCCCCCC(=O)Nc5cccc6c5CN(C5CCC(=O)NC5=O)C6=O)cc43)c2)nnc1-c1ccncn1 (stereo partly drawn) [Compound D187, N-((4R)-6-(6-(2-(2-(6-(2-(2,6-dioxopiperidin-3-yl)-1-oxoisoindolin-4-ylamino)-6-oxohexyloxy)ethoxy)ethoxy)hexyloxy)chroman-4-yl)-3-((4-methyl-5-(pyrimidin-4-yl)-4H-1,2,4-triazol-3-yl)methylamino)benzamide] | 2.09 µM | > 30 µM | 11.8% | 23.8% | 63.1% |  |  |  |  |  |  | 
12 | Cn1c(CNc2cccc(C(=O)NCc3cccc(OCCCCCCC(=O)NCCOCCOCCOCCC(=O)Nc4cccc5c4CN(C4CCC(=O)NC4=O)C5=O)c3)c2)nnc1-c1ccncn1 (stereo not drawn) [Compound D114] |  |  |  |  |  |  |  |  | > 10 µM | > 10 µM | 32% | 15%
13 | C[C@@H](NC(=O)c1cccc(NCc2nnc(-c3ccncn3)n2C)c1)c1cccc(OCCCCCn2cc(CCCCC(=O)Nc3cccc4c3CN(C3CCC(=O)NC3=O)C4=O)nn2)c1 (stereo partly drawn) [Compound D164] | 5.09 µM | > 30 µM | 17.1% | 14.1% | 42.6% |  |  |  |  |  |  | 
